Reference: PubChem BioAssay (NCI)
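All cell lines were grown in 96-well plates and treated with compound for 48 hours. The concentration for full growth arrest is given as TGI.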

Assays:
Experiment in all cases: growth of human tumour cells (NCI), 48 h
SF-268 CNS = system: SF-268 CNS
ACHN renal = system: ACHN renal
SR leukemia = system: SR leukemia
RXF 393 renal = system: RXF 393 renal
SK-MEL-2 melanoma = system: SK-MEL-2 melanoma
COLO 205 colon = system: COLO 205 colon
RPMI-8226 leukemia = system: RPMI-8226 leukemia
T-47D breast = system: T-47D breast
CCRF-CEM leukemia = system: CCRF-CEM leukemia
HOP-62 NSCLC = system: HOP-62 NSCLC
MCF7 breast = system: MCF7 breast
HL-60(TB) leukemia = system: HL-60(TB) leukemia
BT-549 breast = system: BT-549 breast
SNB-19 CNS = system: SNB-19 CNS
UO-31 renal = system: UO-31 renal
IGROV1 ovarian = system: IGROV1 ovarian
SNB-75 CNS = system: SNB-75 CNS
HOP-92 NSCLC = system: HOP-92 NSCLC
SF-539 CNS = system: SF-539 CNS
HT29 colon = system: HT29 colon
U251 CNS = system: U251 CNS
OVCAR-3 ovarian = system: OVCAR-3 ovarian
MDA-MB-435 = system: MDA-MB-435
LOX IMVI melanoma = system: LOX IMVI melanoma
MDA-MB-231 breast = system: MDA-MB-231 breast
OVCAR-8 ovarian = system: OVCAR-8 ovarian
UACC-257 melanoma = system: UACC-257 melanoma
EKVX NSCLC = system: EKVX NSCLC
SK-MEL-28 melanoma = system: SK-MEL-28 melanoma
SK-OV-3 ovarian = system: SK-OV-3 ovarian
OVCAR-4 ovarian = system: OVCAR-4 ovarian
HCC-2998 colon = system: HCC-2998 colon
DU-145 prostate = system: DU-145 prostate
MOLT-4 leukemia = system: MOLT-4 leukemia
K-562 leukemia = system: K-562 leukemia
HCT-116 colon = system: HCT-116 colon
TK-10 renal = system: TK-10 renal
HCT-15 colon = system: HCT-15 colon
KM12 colon = system: KM12 colon
UACC-62 melanoma = system: UACC-62 melanoma
MALME-3M melanoma = system: MALME-3M melanoma
HS 578T breast = system: HS 578T breast
786-0 renal = system: 786-0 renal
NCI/ADR-RES ovarian = system: NCI/ADR-RES ovarian
CAKI-1 renal = system: CAKI-1 renal
A498 renal = system: A498 renal
SK-MEL-5 melanoma = system: SK-MEL-5 melanoma
MDA-N = system: MDA-N
PC-3 prostate = system: PC-3 prostate
OVCAR-5 ovarian = system: OVCAR-5 ovarian
NCI-H226 lung = system: NCI-H226 lung
NCI-H23 lung = system: NCI-H23 lung
NCI-H522 lung = system: NCI-H522 lung
SN12C renal = system: SN12C renal
NCI-H460 lung = system: NCI-H460 lung
SW-620 colon = system: SW-620 colon
SF-295 CNS = system: SF-295 CNS
M14 melanoma = system: M14 melanoma
DMS 114 small cell lung = system: DMS 114 small cell lung
DMS 273 small cell lung = system: DMS 273 small cell lung
LXFL 529 NSCLC = system: LXFL 529 NSCLC
XF 498 CNS = system: XF 498 CNS
DLD-1 colon = system: DLD-1 colon
KM20L2 colon = system: KM20L2 colon
A549 NSCLC = system: A549 NSCLC
M19-MEL melanoma = system: M19-MEL melanoma

For `CCCCCCCCCCC/C=C(/C(=O)CCCO[Si](C)(C)C(C)(C)C)C(=O)OC`, the TGI (SF-268 CNS) was over 100 µM, the TGI (ACHN renal) was over 100 µM and the TGI (SR leukemia) was over 100 µM. The TGI (RXF 393 renal) was over 100 µM, the TGI (SK-MEL-2 melanoma) was over 100 µM and the TGI (COLO 205 colon) was over 100 µM. The TGI (RPMI-8226 leukemia) was over 100 µM, the TGI (T-47D breast) was over 100 µM and the TGI (CCRF-CEM leukemia) was over 100 µM. It also gave a TGI (HOP-62 NSCLC) of over 100 µM, a TGI (MCF7 breast) of over 100 µM and a TGI (HL-60(TB) leukemia) of over 100 µM. It also gave a TGI (BT-549 breast) of over 100 µM, a TGI (SNB-19 CNS) of over 100 µM and a TGI (UO-31 renal) of over 100 µM. For the same compound, the TGI (IGROV1 ovarian) was over 100 µM, the TGI (SNB-75 CNS) was over 100 µM and the TGI (HOP-92 NSCLC) was over 100 µM. The TGI (SF-539 CNS) was over 100 µM, the TGI (HT29 colon) was over 100 µM and the TGI (U251 CNS) was over 100 µM. It also gave a TGI (OVCAR-3 ovarian) of over 100 µM, a TGI (MDA-MB-435) of over 100 µM and a TGI (LOX IMVI melanoma) of over 100 µM. For the same compound, the TGI (MDA-MB-231 breast) was over 100 µM, the TGI (OVCAR-8 ovarian) was over 100 µM and the TGI (UACC-257 melanoma) was over 100 µM. The TGI (EKVX NSCLC) was over 100 µM, the TGI (SK-MEL-28 melanoma) was over 100 µM and the TGI (SK-OV-3 ovarian) was over 100 µM. It also gave a TGI (OVCAR-4 ovarian) of over 100 µM, a TGI (HCC-2998 colon) of over 100 µM and a TGI (DU-145 prostate) of over 100 µM. For the same compound, the TGI (MOLT-4 leukemia) was over 100 µM, the TGI (K-562 leukemia) was over 100 µM and the TGI (HCT-116 colon) was over 100 µM. It also gave a TGI (TK-10 renal) of over 100 µM, a TGI (HCT-15 colon) of over 100 µM and a TGI (KM12 colon) of over 100 µM. For the same compound, the TGI (UACC-62 melanoma) was over 100 µM, the TGI (MALME-3M melanoma) was over 100 µM and the TGI (HS 578T breast) was over 100 µM. For the same compound, the TGI (786-0 renal) was over 100 µM, the TGI (NCI/ADR-RES ovarian) was over 100 µM and the TGI (CAKI-1 renal) was over 100 µM. It also gave a TGI (A498 renal) of over 100 µM, a TGI (SK-MEL-5 melanoma) of over 100 µM and a TGI (MDA-N) of over 100 µM. The TGI (PC-3 prostate) was over 100 µM, the TGI (OVCAR-5 ovarian) was over 100 µM and the TGI (NCI-H226 lung) was over 100 µM. The TGI (NCI-H23 lung) was over 100 µM, the TGI (NCI-H522 lung) was over 100 µM and the TGI (SN12C renal) was over 100 µM. It also gave a TGI (NCI-H460 lung) of over 100 µM, a TGI (SW-620 colon) of over 100 µM and a TGI (SF-295 CNS) of over 100 µM. For the same compound, the TGI (M14 melanoma) was over 100 µM.

`N#C/C(c1nc2ccccc2[nH]1)=c1\s/c(=C/c2ccccc2)c(=O)n1-c1ccccc1` gave a TGI (SF-268 CNS) of over 100 µM, a TGI (ACHN renal) of over 100 µM and a TGI (SR leukemia) of over 100 µM. It also gave a TGI (SK-MEL-2 melanoma) of over 100 µM, a TGI (COLO 205 colon) of over 100 µM and a TGI (RPMI-8226 leukemia) of over 100 µM. The TGI (CCRF-CEM leukemia) was over 100 µM, the TGI (HOP-62 NSCLC) was over 100 µM and the TGI (HL-60(TB) leukemia) was over 100 µM. It also gave a TGI (DMS 114 small cell lung) of over 100 µM, a TGI (DMS 273 small cell lung) of over 100 µM and a TGI (SNB-19 CNS) of over 100 µM. It also gave a TGI (UO-31 renal) of over 100 µM, a TGI (IGROV1 ovarian) of over 100 µM and a TGI (SNB-75 CNS) of over 100 µM. For the same compound, the TGI (HOP-92 NSCLC) was over 100 µM, the TGI (SF-539 CNS) was over 100 µM and the TGI (U251 CNS) was over 100 µM. For the same compound, the TGI (OVCAR-3 ovarian) was over 100 µM, the TGI (LOX IMVI melanoma) was over 100 µM and the TGI (OVCAR-8 ovarian) was over 100 µM. For the same compound, the TGI (UACC-257 melanoma) was over 100 µM, the TGI (EKVX NSCLC) was over 100 µM and the TGI (SK-MEL-28 melanoma) was over 100 µM. The TGI (SK-OV-3 ovarian) was over 100 µM, the TGI (OVCAR-4 ovarian) was over 100 µM and the TGI (LXFL 529 NSCLC) was over 100 µM. For the same compound, the TGI (HCC-2998 colon) was over 100 µM, the TGI (MOLT-4 leukemia) was over 100 µM and the TGI (K-562 leukemia) was over 100 µM. For the same compound, the TGI (HCT-116 colon) was over 100 µM, the TGI (XF 498 CNS) was over 100 µM and the TGI (TK-10 renal) was over 100 µM. It also gave a TGI (HCT-15 colon) of over 100 µM, a TGI (DLD-1 colon) of over 100 µM and a TGI (KM12 colon) of over 100 µM. For the same compound, the TGI (UACC-62 melanoma) was over 100 µM, the TGI (KM20L2 colon) was over 100 µM and the TGI (MALME-3M melanoma) was over 100 µM. The TGI (786-0 renal) was over 100 µM, the TGI (A549 NSCLC) was over 100 µM and the TGI (CAKI-1 renal) was over 100 µM. The TGI (A498 renal) was over 100 µM, the TGI (M19-MEL melanoma) was over 100 µM and the TGI (SK-MEL-5 melanoma) was over 100 µM. The TGI (OVCAR-5 ovarian) was over 100 µM, the TGI (NCI-H226 lung) was over 100 µM and the TGI (NCI-H23 lung) was over 100 µM. It also gave a TGI (NCI-H522 lung) of over 100 µM, a TGI (SN12C renal) of over 100 µM and a TGI (NCI-H460 lung) of over 100 µM. For the same compound, the TGI (SW-620 colon) was over 100 µM and the TGI (M14 melanoma) was over 100 µM.

Work on `O=C(/C=C/c1ccc([N+](=O)[O-])cc1)N1CCN(CCOC(c2ccc(F)cc2)c2ccc(F)cc2)CC1` yielded a TGI (SF-268 CNS) of over 100 µM, a TGI (ACHN renal) of over 100 µM and a TGI (SR leukemia) of 40.5 µM. The TGI (RXF 393 renal) was over 100 µM, the TGI (SK-MEL-2 melanoma) was over 100 µM and the TGI (COLO 205 colon) was 27.3 µM. The TGI (RPMI-8226 leukemia) was 36.9 µM, the TGI (T-47D breast) was over 100 µM and the TGI (CCRF-CEM leukemia) was over 100 µM. For the same compound, the TGI (HOP-62 NSCLC) was over 100 µM, the TGI (MCF7 breast) was over 100 µM and the TGI (HL-60(TB) leukemia) was over 100 µM. It also gave a TGI (BT-549 breast) of over 100 µM, a TGI (SNB-19 CNS) of over 100 µM and a TGI (UO-31 renal) of 96.4 µM. The TGI (IGROV1 ovarian) was over 100 µM, the TGI (SNB-75 CNS) was over 100 µM and the TGI (HOP-92 NSCLC) was 83.8 µM. For the same compound, the TGI (SF-539 CNS) was over 100 µM, the TGI (HT29 colon) was over 100 µM and the TGI (U251 CNS) was over 100 µM. For the same compound, the TGI (OVCAR-3 ovarian) was over 100 µM, the TGI (MDA-MB-435) was over 100 µM and the TGI (LOX IMVI melanoma) was over 100 µM. For the same compound, the TGI (MDA-MB-231 breast) was over 100 µM, the TGI (OVCAR-8 ovarian) was over 100 µM and the TGI (UACC-257 melanoma) was over 100 µM. It also gave a TGI (EKVX NSCLC) of over 100 µM, a TGI (SK-MEL-28 melanoma) of over 100 µM and a TGI (SK-OV-3 ovarian) of over 100 µM. For the same compound, the TGI (OVCAR-4 ovarian) was over 100 µM, the TGI (HCC-2998 colon) was over 100 µM and the TGI (DU-145 prostate) was over 100 µM. It also gave a TGI (MOLT-4 leukemia) of 19 µM, a TGI (K-562 leukemia) of over 100 µM and a TGI (HCT-116 colon) of over 100 µM. The TGI (TK-10 renal) was over 100 µM, the TGI (HCT-15 colon) was over 100 µM and the TGI (KM12 colon) was over 100 µM. For the same compound, the TGI (UACC-62 melanoma) was over 100 µM, the TGI (MALME-3M melanoma) was over 100 µM and the TGI (HS 578T breast) was over 100 µM. For the same compound, the TGI (786-0 renal) was over 100 µM, the TGI (NCI/ADR-RES ovarian) was over 100 µM and the TGI (A549 NSCLC) was over 100 µM. For the same compound, the TGI (CAKI-1 renal) was over 100 µM, the TGI (A498 renal) was over 100 µM and the TGI (SK-MEL-5 melanoma) was over 100 µM. It also gave a TGI (MDA-N) of over 100 µM, a TGI (PC-3 prostate) of over 100 µM and a TGI (OVCAR-5 ovarian) of over 100 µM. It also gave a TGI (NCI-H226 lung) of over 100 µM, a TGI (NCI-H23 lung) of over 100 µM and a TGI (NCI-H522 lung) of over 100 µM. It also gave a TGI (SN12C renal) of over 100 µM, a TGI (NCI-H460 lung) of over 100 µM and a TGI (SW-620 colon) of over 100 µM. It also gave a TGI (SF-295 CNS) of over 100 µM and a TGI (M14 melanoma) of over 100 µM.
